{"source": "patent US8791077B2", "about": "“Method for treating hyperuricemia employing an SGLT2 inhibitor and composition containing same” (AstraZeneca AB, priority 2008, dated 2014)", "key": {"[1]": {"test_system": "Healthy Normal Volunteers", "test": "Urinary glucose excretion over 24 hr in healthy normal volunteers after single doses of SGLT2 inhibitors", "type": "in vivo, human", "conditions": "healthy subjects; 5, 20, 50 or 100 mg; compared to GSK 869,682; FIG. 1"}, "type 2 diabetic patients": {"test_system": "type 2 diabetic patients", "description": "C-aryl glucoside SGLT2 inhibitors are known to reduce blood glucose levels in diabetic patients, see U.S. Pat. No. 6,774,112, which is incorporated herein by reference in its entirety, but not known to increase urine volume. […] Metformin reduces plasma glucose concentration by non-renal mechanisms and is not known to induce glucosuria. […] On day 1 and day 14, the patients were examined for the levels of glucosuria and changes in urine volumes. […] Patients' serum uric acid levels were not measured in this experiment."}, "diabetic patients": {"test_system": "diabetic patients", "test": "12-week treatment of diabetic patients: urine glucose, HbA1C, urine volume, serum uric acid", "type": "in vivo, human", "conditions": "for Uric Acid (change in serum uric acid), mean ± standard deviation: 12 week treatment"}, "patients with diabetes": {"test_system": "patients with diabetes", "conditions": "5, 25, or 100 mg, FIG. 2", "from_the_text": "The levels of urine glucose of all subjects are shown in the plot and the mean urine glucose is in the darker lines."}, "SGLT2 relative to SGLT-1": {"test_system": "SGLT2 relative to SGLT-1", "conditions": "ratio of EC50 in SGLT1 and SGLT2 assay", "from_the_text": "Selectivity for SGLT2 of a given inhibitor can be determined by comparing the EC50 values measured in the SGLT1 and SGLT2 assay. […] The hSGLT1 and hSGLT2 sequences were cloned into pIRESneo vector (Clontech, Mountain View, Calif.) for mammalian expression and were stably transfected into Chinese hamster ovary (CHO) cells. SGLT-expressing clones were selected based on resistance to G418 antibiotic (GENETICIN®, Invitrogen, Carlsbad, Calif.) and activity in the ^14C-α-methyl-D-glucopyranoside (^14C-AMG) uptake assay.\nCells expressing hSGLT1 or hSGLT2 were maintained using standard cell culture techniques. […] Sodium-dependent ^14C-AMG uptake was calculated by subtracting the counts per minute (CPM) observed under sodium-free uptake conditions from the counts observed under sodium-containing conditions. Inhibitors were assayed at various concentrations in triplicate in the presence of sodium, and the percent inhibition was calculated by comparing CPM in inhibitor-containing wells with CPM in wells containing only DMSO vehicle. Phlorizin, a known SGLT inhibitor, was evaluated in parallel in every assay. […]"}}, "data": [{"smiles": "CCOc1ccc(Cc2cc([C@@H]3O[C@H](CO)[C@@H](O)[C@H](O)[C@H]3O)ccc2Cl)cc1", "note": "[dapagliflozin PGS, dapagliflozin (S)-propylene glycol solvate]", "values": [{"measurement": "Glucosuric effect (glucose excretion/day within 24 hours), loss of calories in urine", "setting": "[1]", "result": "significant loss of calories in the urine"}, {"measurement": "Fasting serum glucose (FSG) levels", "setting": "type 2 diabetic patients; two-week period", "result": "Dose-dependent reduction"}, {"measurement": "Postprandial glucose levels in oral glucose tolerance tests (OGTT)", "setting": "type 2 diabetic patients; two-week period", "result": "reduced postprandial glucose levels"}, {"measurement": "Urine volumes", "setting": "type 2 diabetic patients; two-week period", "result": "no increase in urine volumes was apparent"}, {"measurement": "Urinary glucose levels within a 24-hour time period", "setting": "type 2 diabetic patients; vs placebo, FIG. 3", "result": "increased"}, {"measurement": "Uric Acid (change in serum uric acid), mean ± standard deviation", "setting": "diabetic patients; 2.5 mg", "result": "-1.03 ± 0.81", "unit": "mg/dL"}, {"measurement": "Uric Acid (change in serum uric acid), mean ± standard deviation", "setting": "diabetic patients; 5 mg", "result": "-1.12 ± 0.84", "unit": "mg/dL"}, {"measurement": "Uric Acid (change in serum uric acid), mean ± standard deviation", "setting": "diabetic patients; 10 mg", "result": "-0.98 ± 0.66", "unit": "mg/dL"}, {"measurement": "Uric Acid (change in serum uric acid), mean ± standard deviation", "setting": "diabetic patients; 20 mg", "result": "-1.13 ± 0.78", "unit": "mg/dL"}, {"measurement": "Uric Acid (change in serum uric acid), mean ± standard deviation", "setting": "diabetic patients; 50 mg", "result": "-1.14 ± 1.15", "unit": "mg/dL"}, {"measurement": "OGT", "setting": "diabetic patients; diabetic patients, 2.5-50 mg, after 12 weeks of treatment", "result": "improved OGT"}, {"measurement": "Average of decrease in serum uric acid levels", "setting": "diabetic patients; diabetic patients, all doses, after 12 weeks treatment", "result": "approximately 1 g/dL"}, {"measurement": "Urine glucose excretion compared to placebo", "setting": "patients with diabetes", "result": "higher levels of urine glucose excretion"}]}, {"smiles": "CCOc1ccc(Cc2cc([C@@H]3O[C@H](CO)[C@@H](O)[C@H](O)[C@H]3O)ccc2Cl)cc1", "note": "[dapagliflozin]", "values": [{"measurement": "Selectivity for SGLT2 relative to SGLT-1", "setting": "SGLT2 relative to SGLT-1", "result": "High selectivity for SGLT2"}]}, {"smiles": "CN(C)C(=N)N=C(N)N", "note": "[metformin, reference compound]", "values": [{"measurement": "Uric Acid (change in serum uric acid), mean ± standard deviation", "setting": "diabetic patients; metformin group", "result": "0.18 ± 0.53", "unit": "mg/dL"}, {"measurement": "Reduced HbA1C levels", "setting": "diabetic patients; diabetic patients, 1500 mg metformin", "result": 0.73, "unit": "%"}]}]}
